Reference: patent publication US20110251188A1, “ACENAPHTHO HETEROCYCLE COMPOUNDS, CYCLODEXTRIN INCLUSION COMPOUNDS AND COMPLEXES, AND USES IN THE MANUFACTURES OF BH3 PROTEIN ANALOGUE, BCL-2 FAMILY PROTEIN INHIBITORS THEREOF” (DALIAN UNIVERSITY OF TECHNOLOGY, priority 2008, published 2011)

Columns and labels:
[1] = system: Bcl-2; test: Western blotting, inhibition (downregulation) of Bcl-2 in tumor cells, Example 23; format: cell-based; conditions: for inhibition against Bcl-2: Western blotting, tumor cells
Method: The interest protein was detected by the corresponding antibody. The expression of the interest protein in the cells was detected by horseradish peroxidase-labeled secondary antibodies in combination with ECL coloration method. […] The concentration of the protein bands in the Western images were carried out semiquantitative analysis and normalization treatment with KODAK Gel Logic 1500 imaging system software.

[2] = molecular target: T1, GST-Bcl-2 protein (Homo sapiens, UniProt P10415); test: fluorescence polarization assay, competitive binding against FAM-Bid peptide; conditions: Table 3; FAM-Bid competition; table does not say whether Bcl-2 or Mcl-1; read-out: Binding constant
T1 construct: fused on or other part: GST tag on Bcl-2
Method: A Bid BH3 peptide (amino acids: 79-99: […]) having 21 amino acids was synthesized and marked with 6-carboxyfluorescein N-succinimidyl ester (FAM) as fluorescent tag (FAM-Bid) at the N-terminal. The reaction system used in the competitive binding experiment was GST-Bcl-2 protein (40 nM) or Mcl-1 protein, which was dissolved in the reaction buffer (100 mM K3PO4, pH 7.5; 100 μg/ml bovine γ albumin; 0.02% sodium azide) together with FAM-Bid polypeptide (5 nM). In a 96-well plate, 100 μL of the reaction system was added into each well. Then 1 μL different concentration of 3-thiomorpholinyl-8-oxo-8H-acenaphtho[1,2-b]pyrrole-9-carbonitrile mother solution to be detected dissolved in DMSO was added thereinto until the final concentration met the experimental design requirements. Meanwhile, two control groups were established, one with the reaction system only contains Bcl-2 or Mcl-1 and FAM-Bid (equivalent to 0% inhibition rate), the other with the reaction system only containing FAM-Bid peptide. After 4 hours of incubation, the 96-well plate was detected by enzyme-labelled meter. The fluorescent polarization value (mP) was tested at […]. Ki value was deduced according to calculation formula. The competitive binding constant between the compound and Bcl-2 was 310 nM.

[3] = molecular target: T2, interaction between Bcl-2 and Bax (Homo sapiens, UniProt P10415); test: intracellular fluorescence polarization energy transfer (FRET), Hela cells transfected with Bcl-2-CFP and Bax-YFP; format: cell-based; conditions: for Time for which the compound interfered with the interaction between Bcl-2 and Bax: goes with the concentration of E11; for Concentration at which the compound interfered with the interaction between Bcl-2 and Bax: goes with the time of E12
T2 construct: expressed in transfected cells; host or cells: Hela cells
Method: 24 hours later (please refer to FIG. 2), the cells were washed with PBS for three times. The fluorescence value was detected by GENIOS fluorescence enzyme-labelled meter (TECAN, Swiss). In time-dependent experiment, the transfected cells were inoculated in a 6-well plate, after that, 40 μM of the compound was added thereinto. 3, 6 and 24 hours later (FIG. 3), the fluorescence intensities were detected by plate reader. As for the cell group in which only Bcl-2-CFP plasmid was transfected, the values at 475 nm emission wave length and 433 nm excitation wave length were recorded. As for the cell group in which only Bax-YFP plasmid was transfected, the values at 527 nm emission wave length and 505 nm excitation wave length were recorded. […] The ratio of fluorescence intensity at 527 nm and 475 nm emission wave lengths was FRET. The FRET for the control group in which the plasmid was solely transfected was set as 1.0. […] The cellular vitality was detected by MTT method.
Wherein the concentration and time meant that the detected compound interfered with the interaction between Bcl-2 and Bax at the concentration for the time period.

T1 sequence (P10415 whole entry, the tested form may be a part): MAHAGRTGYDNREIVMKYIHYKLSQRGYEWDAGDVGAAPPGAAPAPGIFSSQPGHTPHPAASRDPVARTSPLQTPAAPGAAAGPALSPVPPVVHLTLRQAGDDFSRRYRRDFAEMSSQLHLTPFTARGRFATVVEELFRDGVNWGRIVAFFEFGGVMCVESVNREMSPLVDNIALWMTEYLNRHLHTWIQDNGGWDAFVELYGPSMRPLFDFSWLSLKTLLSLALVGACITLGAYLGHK
T2 sequence (P10415 whole entry): as the sequence (P10415 whole entry, the tested form may be a part) above

Compound | Ki [2] [nM] | Time for which the compound interfered with the interaction between Bcl-2 and Bax [3] [h] | Concentration at which the compound interfered with the interaction between Bcl-2 and Bax [3] [µM] | downregulation of Bcl-2 protein, semiquantitative analysis (band concentration, control = 1) ([1]; 2 hours) | downregulation of Bcl-2 protein, semiquantitative analysis (band concentration, control = 1) ([1]; 6 hours) | inhibition against Bcl-2 [1]
N#CC1=C2C(=NC1=O)c1c(Sc3ccc(N)cc3)ccc3c(Sc4ccc(N)cc4)ccc2c13 [3,6-di(4-aminophenylthio)-8-oxo-8 H-acenaphtho[1,2-b]pyrrole-9-carbonitrile] | 7 | 2 | 1.0 | 0.72 | 0.43 | had the inhibition against Bcl-2 and Mcl-1 proteins
N#CC1=C2C(=NC1=O)c1c(Sc3ccc(N)cc3)ccc3cccc2c13 [6-(4-aminophenylthio)-8-oxo-8H-acenaphtho[1,2-b]pyrrole-9-carbonitrile] | 20 | 2 | 0.2 | 0.79 | 0.49 | had the inhibition against Bcl-2 and Mcl-1 proteins
N#CC1=C2C(=NC1=O)c1cccc3c(Sc4ccc(Br)cc4)ccc2c13 [3-(4-bromophenylthio)-8-oxo-8H-acenaphtho[1,2-b]pyrrole-9-carbonitrile] | 17 | 2 | 0.5 | 0.66 | 0.35 | had the inhibition against Bcl-2 and Mcl-1 proteins

Molecules with a lower Ki [2], results first:

Ki [2] [nM] | Time for which the compound interfered with the interaction between Bcl-2 and Bax [3] [h] | Concentration at which the compound interfered with the interaction between Bcl-2 and Bax [3] [µM] | Compound | downregulation of Bcl-2 protein, semiquantitative analysis (band concentration, control = 1) ([1]; 2 hours) | downregulation of Bcl-2 protein, semiquantitative analysis (band concentration, control = 1) ([1]; 6 hours) | inhibition against Bcl-2 [1]
0.3 | 2 | 0.1 | N#CC1=C2C(=NC1=O)c1cccc3cccc2c13 [8-oxo-8H-acenaphtho[1,2-b]pyrrole-9-carbonitrile] | 0.78 | 0.69 | had the inhibition against Bcl-2 and Mcl-1 proteins
5 | 2 | 1.0 | N#CC1=C2C(=NC1=O)c1c(Sc3ccc(Br)cc3)ccc3c(Sc4ccc(Br)cc4)ccc2c13 [3,6-di(4-bromophenylthio)-8-oxo-8H-acenaphtho[1,2-b]pyrrole-9-carbonitrile] | 0.68 | 0.49 | had the inhibition against Bcl-2 and Mcl-1 proteins
